Laboratory results taken from patent US5340806A, “Composition containing organogermanium compound and immunity adjusting agent comprising the composition” (Sanwa Kagaku Kenkyusho Co., Ltd., priority 1984, dated 1994).
Read-outs that look alike come from different tables or passages of the source.

What was measured:
[1] = test system: spleen cells (PFC), Sarcoma 180 cancered mice; test: Antibody production ability in cancered mouse (spleen cell PFC); format: in vivo, ICR male mice; details: oral for 5 days, depending on dosing amount; FIG. 9
Procedure: 2×10^6 cells of a mouse tumor cell (Sarcoma 180) were implanted under the skin of a side part of ICR male mice to form a solid cancer. The organogermanium compound (Compound No. 1 in Table 1) dissolved in 4% cattle serum albumin solution was orally dosed to the cancered mice for 5 days, after 9 days had elapsed from the implantation, 2×10^8 corpuscles of SRBC were injected in a tail vein of the mice for sensitization. After 4 days from the sensitization, spleen cells were extracted to measure of PFC therein, which was used as an index of the antibody productivity.

[2] = test system: NZB/W F1 mouse lymphocytes; test: Antibody production in culture system of NZB/W F1 mouse lymphocytes; format: cell-based, NZB/W F1 male mice; details: 1 to 2 μg/ml; FIG. 10a
BALB/C mouse lymphocytes = test: Antibody production in culture system of BALB/C mouse lymphocytes; format: cell-based, BALB/C male mice
[3] = test system: adjuvant arthritis in rats; test: Adjuvant arthritis in rats; format: in vivo, S.D. male rats; details: 100 mg/kg/day oral, FIG. 12
Procedure: 0.05 ml of an adjuvant (prepared by suspending 0.6 mg of micobacteriumbutircum into 0.05 ml of liquid paraffin) was injected under the skin of a hind leg heel in S.D. male rats. After 1, 3, 5, 7, 21, and 28 days from the adjuvant dosage, the volume of the dosed and non-dosed legs was measured to determine a ratio of the edema.
The organogermanium compound was orally dosed for 28 days after the adjuvant dosage, in an amount of 1, 10 and 100 mg/kg/day, respectively.

LD50 for beagle dog = details: in vivo
[4] = test system: chronic non A non B hepatitis; test: Chronic non A non B hepatitis, 30/60/90 mg/day, 12 weeks (Table 4B); format: in vivo, human patients
Procedure: Search on effectiveness of the organogermanium compound to chronic B and non A non B hepatitises and preferable amount of dose thereof.
Therefore, 30 mg, 60 mg and 90 mg/day/body were set. Experimental period of time was set for 12 weeks. […]

chronic B hepatitis [5] = format: in vivo, human patients; details: 30 mg/day
From the text: Utility or effectiveness of the organogermanium compound is checked in comparison with that of a placebo as a control. Interferons have widely been accepted as drugs for curing chronic hepatitis, but those are injectionally dosed. On the contrary, the organogermanium compound is orally dosed. In recent years, some oral medicines for curing liver diseases have been developed and the effectiveness thereof has been evaluated by using a placebo as its control. Therefore, the "placebo" is selected as the control for the evaluation of the organogermanium compound in question. (a) To patients with chronic B hepatitis: 30 mg/day/body. Experiment period of time was set for 16 weeks for the patients with chronic B hepatitis and for 12 weeks for the patients with non A and non B hepatitis.

[6] = test system: chronic non A non B hepatitis; format: in vivo, human patients; details: 60 mg/day, 12 weeks
From the text: Utility or effectiveness of the organogermanium compound is checked in comparison with that of a placebo as a control. Interferons have widely been accepted as drugs for curing chronic hepatitis, but those are injectionally dosed. On the contrary, the organogermanium compound is orally dosed. In recent years, some oral medicines for curing liver diseases have been developed and the effectiveness thereof has been evaluated by using a placebo as its control. Therefore, the "placebo" is selected as the control for the evaluation of the organogermanium compound in question. (b) To patients with non A non B hepatitis: 60 mg/day/body. Experiment period of time was set for 16 weeks for the patients with chronic B hepatitis and for 12 weeks for the patients with non A and non B hepatitis.

chronic B hepatitis [7] = test: Chronic B hepatitis, 16 weeks, 30 mg/day/body (In Vivo Utilization Example 5); set-up: species or system human patients

3-oxygermylpropionic acid [Compound No. 1]
ability to produce antibodies (PFC) [1]: the ability to produce antibodies recovers towards a normal level | antibody production ability [2]: an inhibition in antibody production ability | antibody producing function (BALB/C mouse lymphocytes; 10 μg/ml, FIG. 10b): an acceleration of the function | antibody producing function (BALB/C mouse lymphocytes; 1 to 2 μg/ml): no change | effect on secondary phlegmasia after 14 to 28 days [3]: an inhibition effect to a secondary phlegmasia | 15 mg/body as fraction of LD50 for beagle dog (LD50 for beagle dog): 1/12000 | Effectiveness (slight or more) ([4]; 30 mg/day): 31% | General judgement: Improvement (slight or more) ([4]; 30 mg/day): 29% | Safety (quite) ([4]; 30 mg/day): 92% | Side effect ([4]; 30 mg/day): 8.3% | Effectiveness (slight or more) ([4]; 60 mg/day): 44% | General judgement: Improvement (slight or more) ([4]; 60 mg/day): 45% | Safety (quite) ([4]; 60 mg/day): 91% | Side effect ([4]; 60 mg/day): 8.8% | A 1-P change ([4]; 60 mg/day, 12 weeks): .dwnarw. ** | GOT change ([4]; 60 mg/day, 12 weeks): .dwnarw. ** | GPT change ([4]; 60 mg/day, 12 weeks): .dwnarw. * | Effectiveness (slight or more) ([4]; 90 mg/day): 38% | General judgement: Improvement (slight or more) ([4]; 90 mg/day): 41% | Safety (quite) ([4]; 90 mg/day): 90% | Side effect ([4]; 90 mg/day): 10.0% | A/G change (chronic B hepatitis [5]): .uparw. ** | GOT change (chronic B hepatitis [5]): .dwnarw. *** | GOT, test versus placebo (chronic B hepatitis [5]): + (S>P) | GPT change (chronic B hepatitis [5]): .dwnarw. *** | GPT, test versus placebo (chronic B hepatitis [5]): * (S>P) | Globulin change (chronic B hepatitis [5]): .dwnarw. *** | Globulin, test versus placebo (chronic B hepatitis [5]): + (S>P) | HBe-AG (log conversion) change (chronic B hepatitis [5]): .uparw. *** | HBe-AG (log conversion), test versus placebo (chronic B hepatitis [5]): * (S>P) | HBe-Ab change (chronic B hepatitis [5]): .uparw. * | HBe-Ab, test versus placebo (chronic B hepatitis [5]): * (S>P) | Serum albumin change (chronic B hepatitis [5]): .uparw. + | TTT change (chronic B hepatitis [5]): .dwnarw. *** | Total cholesterol change (chronic B hepatitis [5]): .uparw. * | Total cholesterol, test versus placebo (chronic B hepatitis [5]): * (S>P) | ZTT change (chronic B hepatitis [5]): .dwnarw. ** | γ-GPT change (chronic B hepatitis [5]): .dwnarw. ** | Improvement (objective) (chronic B hepatitis [5]; 16 weeks, placebo 13%): 10% | Improvement (HBe Ag-Ab) (chronic B hepatitis [5]; 16 weeks, placebo 25%): 51% | Improvement (sec. judgement) (chronic B hepatitis [5]; 16 weeks, placebo 29%): 54% | Improvement (Doc. on duty) (chronic B hepatitis [5]; 16 weeks, placebo 31%): 58% | Effectiveness (slight or more) (chronic B hepatitis [5]; 16 weeks, placebo 34%): 63% | Improvement (general) (chronic B hepatitis [5]; 16 weeks, placebo 39%): 66% | Improvement (self) (chronic B hepatitis [5]; 16 weeks, placebo 40%): 53% | A/G change [6]: .uparw. + | GOT change [6]: .dwnarw. *** | GOT, test versus placebo [6]: ** (S>P) | GPT change [6]: .dwnarw. *** | GPT, test versus placebo [6]: ** (S>P) | Serum albumin change [6]: .dwnarw. ** | γ-GPT change [6]: .dwnarw. * | γ-GPT, test versus placebo [6]: * (S>P) | Improvement (objective) ([6]; placebo 10%): 8% | Improvement (sec. judgement) ([6]; placebo 26%): 51% | Effectiveness (slight or more) ([6]; placebo 29%): 50% | Improvement (Jud. by Doc.) ([6]; placebo 29%): 56% | Improvement (general) ([6]; placebo 32%): 59% | Improvement (self) ([6]; placebo 48%): 50% | suppressor T lymph cell and other CD8 positive cells (chronic B hepatitis [7]; Two-color analysis): A significant reduction | HBe antigen (chronic B hepatitis [7]; after 8 and 12 weeks): A significant reduction of HBe antigen | HBe antibody (chronic B hepatitis [7]; after 8 weeks): Significant increase of HBe antibody | patients changed to SC (chronic B hepatitis [7]; among 33 HBe antigen positive): 2 Patients | patients changed from positive to negative DNA-polymerase (chronic B hepatitis [7]; end of experiment, 4 patients): 14% | improvement in liver functions, HBe antigen positive versus negative groups (chronic B hepatitis [7]; in vivo): no significant difference | ratio of improvement in functions of liver (chronic B hepatitis [7]; middle or more): 30% | ratio of improvement in functions of liver (chronic B hepatitis [7]; slight or more): 50%
